Laboratory results reported in paper PMC8593015 (Scientific Reports, 2021).
“And” between values parts separate entries of the source, which are not always exact repeats. Equal entries are not always repeated.

How the values were obtained:
M. tb EgtD = biological target: T1, M. tb EgtD (Mycobacterium tuberculosis, UniProt P9WN47); assay: biochemical
T1 construct: thioredoxin (N, cleaved yes); polyhistidine (N, cleaved yes); made in house; host or cells: E. coli (T7 cells), pET32-derived vector
T1 sequence (P9WN47 1-321): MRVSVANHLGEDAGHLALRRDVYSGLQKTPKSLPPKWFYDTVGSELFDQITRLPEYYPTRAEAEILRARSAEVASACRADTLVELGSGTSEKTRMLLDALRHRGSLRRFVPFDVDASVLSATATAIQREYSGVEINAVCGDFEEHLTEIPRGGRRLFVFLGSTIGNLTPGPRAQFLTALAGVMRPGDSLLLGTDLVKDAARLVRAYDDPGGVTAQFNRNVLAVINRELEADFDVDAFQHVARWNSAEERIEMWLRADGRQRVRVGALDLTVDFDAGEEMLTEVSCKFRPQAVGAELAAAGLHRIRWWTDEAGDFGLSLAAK

M. tb = system: M. tb; design: method as in PMID 22100163, PMID 24586159, PMID 22988030; conditions: macrophage cells and infected mice; cited from earlier work
[1] = system: Mycobacterium marinum (M. marinum); conditions: cited from earlier work

SMILES | EC50 (M. tb EgtD) | other results
CS(=O)(=O)c1ccc(-c2nc(-c3ccc(F)cc3)c(-c3ccncc3)[nH]2)cc1 [Cay-10571, reference compound] | < 20 µM and 7 µM | –
O=C(O)CNc1cccc(C(=O)NCCc2c[nH]cn2)c1 [HD1] | 89 ± 19 µM | –
O=C(O)C(Cc1cnc[nH]1)n1cccc1 (centres unmarked) [HD2] | 33 ± 3 µM | –
O=C(O)C(Cc1cnc[nH]1)NC(=S)NCc1ccccc1 (centres unmarked) [HD3] | 47 ± 5 µM | –
CCOc1ccccc1CN(CC)C(=O)[C@H](N)Cc1c[nH]cn1 [HD4] | 25 ± 4 µM | –
CN(Cc1ccc(Oc2ccccc2)cc1)C(=O)[C@H](N)Cc1c[nH]cn1 [HD5] | 30 ± 3 µM | –
O=C(N[C@@H](Cc1c[nH]cn1)C(=O)O)C1CC=CC1 [HD6] | 85 ± 19 µM | fold decrease in inhibitory activity versus HD2 and HD3 (M. tb EgtD; ratio of EC50 values): 1.5–2.5 fold
CN(C)CCN(Cc1cnc[nH]1)C(=O)CN(C)Cc1ccccc1 [HD7] | 85 ± 12 µM | –
Cc1ccc(C(C)C(=O)N(CCN(C)C)Cc2cnc[nH]2)cc1 (centres unmarked) [HD8] | 160 ± 60 µM | –
CCOc1ccccc1OCCN(C)Cc1cnc[nH]1 [HD9] | 36 ± 4 µM | –
Cc1cccc(C(C(=O)NCCc2c[nH]cn2)N(C)C)c1 (centres unmarked) [HD10] | 32 ± 4 µM | –
Cc1ccc(NC(=O)c2ccc(CN3CCN(C)CC3)cc2)cc1Nc1nccc(-c2cccnc2)n1 [Imatinib] | – | intracellular replication of M. tb (M. tb): decrease in the intracellular replication; effect of combination with Rifampicin ([1]; M. marinum-infected macrophage cells, Imatinib and Rifampicin): synergistic effect; intracellular replication of M. marinum ([1]; macrophage cells and infected mice): decrease in the intracellular replication
O=c1cc(N2CCOCC2)oc2c1ccc1ccccc12 [NU-7026, reference compound] | < 20 µM and 5.4 µM | –
Cc1cc(C(C)Nc2ccccc2)c2nc(N3CCOCC3)cc(=O)n2c1 (centres unmarked) [TGX-221, reference compound] | < 20 µM and 15.2 µM | –
